Results on one molecule are retold here after article PMC7504466, “In-Vitro and In-Silico Evaluations of Heterocyclic-Containing Diarylpentanoids as Bcl-2 Inhibitors Against LoVo Colorectal Cancer Cells” (Molecules, 2020).

SMILES strings stand for the structures.

For assay [1], the system named is T84 cells. Briefly: MTT cytotoxicity assay, T84 cells. It counts as cell-based. The conditions noted are these: Homo sapiens, 72 h post-treatment, read-out: IC50 (µM) KRAS T84. As to the method: (§1) The in-vitro cytotoxic activity of the synthesized compounds on seven human CRC cell lines including KRAS (T84, SW620, LoVo) and BRAF (HT29, NCI-H508, RKO and LS411N) mutated cells were determined by MTT assay as previously described. The IC50 values obtained are summarized in Table 2 in which 5-FU and normal human dermal fibroblasts (NHDF) were used as controls. Meanwhile, a heatmap (Figure 3) was also generated using GraphPad Prism v7.0 (GraphPad Software, La Jolla, CA, USA) to visualize the cytotoxic trends of synthesized compounds graphically.
(§2) A panel of KRAS (T84, SW620 and LoVo) and BRAF (HT29, NCI-H508, RKO and LS411N) mutated human CRC cell lines were grown in Dulbecco’s modified Eagle’s medium (DMEM) containing 10% fetal bovine serum (FBS) and 1% penicillin/streptomycin at 37 °C under 5% CO2 while NHDF cells were cultured in DMEM with 5% FBS under the same condition. The culture medium was replenished every two days until the cells reached 80–90% confluency for further usage. All cell lines (T84, ATCC®CCL-248™; SW620, ATCC®CCL-227™; LoVo, ATCC®CCL-229™; HT-29, ATCC®HTB-38; NCI-H508, ATCC®CCL-253™; RKO, ATCC®CRL-2577; LS411N, ATCC®CRL-2159; NHDF, ATCC® PCS-201-010™) were purchased from American Type culture Collections (ATCC, Manassas, VA, USA).
(§3) LoVo cells (1.5–5 × 10^3 cells/well) were seeded into a 96 well plate and incubated at 37 °C and 5% CO2 atmosphere for 24 h. On the following day, the cell media were replaced with 100 µL of test compounds at various concentration. The final concentration of DMSO in the well is 0.1%. After 72 h of incubation, culture medium was removed and 100 µL of MTT (thiazoyl blue tertrazolium bromide) solution (0.5 mg/mL in culture media) was added. The resultant plates were then further incubated at 37 °C for 4 h. Upon completion, the MTT solution was removed and the formazan salts formed were dissolved in 100 µL of DMSO. The absorbance was recorded with a microplate reader at 570 nm. The IC50 values of tested compounds were calculated from three independent experiments.

The subject of assay [2] is NCI-H508 cells. Briefly: MTT cytotoxicity assay, NCI-H508 cells. The conditions noted are these: Homo sapiens, 72 h post-treatment, read-out: IC50 (µM) BRAF NCI-H508. It counts as cell-based. As to the method: as §1, §2, §3
Background: Tetrazolium assays rely on reduction of a dye to a coloured formazan, in cell work by metabolically active cells.

Assay [3] has as its system LoVo cells. Put plainly: Morphological inspection. It counts as cell-based, human. The conditions noted are these: 0.625-5 µM, 24 h post-treatment. As to the method:
LoVo cells (5 × 10^4 cells/well) were seeded into a 12 well plate and incubated at 37 °C and 5% CO2 atmosphere for 24 h. Next, the culture media were replaced with 1 mL of test compounds at various concentration and further incubated for 24 h. The final concentration of DMSO in the well is 0.1%. The morphological changes of compound-treated cells were photographed using a fluorescent microscope.

Assay [4] has as its system LoVo cells. Briefly: Colony formation assay. It counts as cell-based, human. The conditions noted are these: 0.625-5 µM, 7 days post-treatment. As for the experimental part: LoVo cells (1 × 10^3 cells/well) were seeded into a 6-well plate and incubated at 37 °C and 5% CO2 atmosphere overnight. After incubation, the culture media were replaced with 3 mL of test compounds at various concentration and further incubated for seven days. Upon completion, cells were washed with PBS and fixed with 4% paraformaldehyde for 15 min followed by cell staining with 0.5% (w/v) crystal violet for 20 min. The resultant plates were then washed with tap water and dried at room temperature. Upon drying, the plate image was photographed.

Assay [5] relates to LoVo cells. Briefly: Cell cycle analysis (flow cytometry, propidium iodide). In kind it is cell-based, human. The conditions noted are these: 2.5 and 5 µM, 24 h. As to the method:
LoVo cells (1 × 10^5 cells/well) were seeded into a 6-well plate and incubated at 37 °C and 5% CO2 atmosphere overnight. The seeded cells were then treated with different concentrations of tested compounds for 24 h. Upon completion, cells were trypsinized and washed with PBS followed by fixation with 70% ethanol overnight at 4 °C. Then, the fixed cells were centrifuged at 160× g for 5 min and the resultant cell pellet was washed twice with PBS. Subsequently, 20 μL of DNAse-free RNAse A solution (1 mg/mL) was added to the cell-containing PBS and further incubated for 15 min. Upon completion, 10 μL of propidium iodide staining buffer (10 mg/mL) was added and the resulting mixture was further incubated for 20 min at 4 °C in the dark. Lastly, samples were analyzed with a flow-cytometer (ACEA Biosciences, Inc., San Diego, CA, USA) at the PE channel. The values presented are the means ± SD of three independent experiments.

The subject of assay [6] is cleaved PARP. Put plainly: Western blot, cleaved PARP. It counts as cell-based, human. The conditions noted are these: 5 µM, LoVo cells, after 24 h. As for the experimental part:
(§4) Lovo cells (1.5 × 10^4 cells/cm^2) were seeded in a T75 flask and incubated at 37 °C and 5% CO2 atmosphere overnight. The seeded cells were then treated with selected compounds at 5 µM of 2e for 24 h, 48 h, and 72 h. After treatment, the cells were harvested and lysed with phenylmethanesulfonyl fluoride (PMSF)-containing cell lysis buffer. The lysates were then centrifuged at 13,300× g for 15 min and the supernatant was collected. Protein concentrations of all samples were determined using a BCA assay kit (Thermo Scientific Inc., Waltham, MA, USA). Equal amounts of protein were electrophoresed in 12% and 20% SDS-polyacrylamide gel (SDS-PAGE), and electro-transferred onto a 0.22-μm polyvinyldene difluoride membrane. Each membrane was blocked with 5% (w/v) skim milk at room temperature for 1 h followed by overnight incubation with specific primary antibodies (1:1000) at 4 °C. Subsequently, the respective membrane was washed thrice with TBST (0.05% (v/v) of tween-20) followed by 1 h incubation with secondary antibody (1:10,000). Upon completion, the membrane was washed thrice with 1X Tris-Buffered Saline, 0.1% Tween® 20 Detergent (TBST) and the immune reactive bands were developed using SuperSignal West Dura Extended Duration Substrate (Thermo Scientific Inc., Waltham, MA, USA). […]

In assay [7] the test system is caspase-9. Put plainly: Western blot, cleaved caspase-9. It counts as cell-based, human. The conditions noted are these: 5 µM, LoVo cells. As for the experimental part: as §4
Background: In western blotting, separated proteins are transferred to a membrane and probed.

Assay [8] has as its system Bax. Put plainly: Western blot, Bax. The conditions noted are these: 5 µM, LoVo cells, detectable only after 48 h. It counts as cell-based, human. As for the experimental part: as §4

Usually IC50 stands for the concentration at which inhibition is half-maximal. In the case of `O=C1C(=Cc2ccccc2Br)CSCC1=Cc1ccccc1Br` [Compound 2e, 3,5-Bis(2-bromobenzylidene)tetrahydro-4H-thiopyran-4-one], the IC50 in assay [1] came out at 1.6 µM; in assay [2] it was 1.1 µM. For the same molecule, the “morphology of treated LoVo cells” value in assay [3] was “shrink from an epithelial-like shape to a round shape”. Further, in assay [4], the “colony formation of LoVo cells” value was “inhibit the colony formation of LoVo cells in a dose-dependent manner”. For the same molecule, the cell cycle effect entry in assay [5] is on record as “induce G2/M-phase cell arrest”. Besides, the “cleaved PARP level” value in assay [6] is on record as “increased”. For the same molecule, in assay [7], the caspase-9 cleavage result is given as “activate the cleavage of caspase-9”. Moreover, the Bax expression entry in assay [8] is reported as “up-regulation”.
